Series [1] in a line: Mouse pharmacokinetic study (intravenous and oral). The class given is in vivo. To be noted: male, plasma, ICR mice, solution. The procedure: Pharmacokinetic profile of test articles in rodent were evaluated in fasted male ICR mouse and Sprague-Dawley rats. […] Rats were dosed with 1 mg/kg and 5 mg/kg by intravenous injection and oral gavage, respectively. Beagle dogs were dosed with 1 mg/kg and 5 mg/kg by intravenous injection and oral gavage, respectively. After dosing, blood samples were collected at each time point. For IV injection group, time points were set at 5, 15, 30 min, and then 1, 2, 4, 8 and 24 hours after dosing. For oral gavage group, timepoints were set at 15, 30 m, and then 1, 2, 4, 8, and 24 hours. Blood was collected into appropriately labeled tubes containing K2EDTA as the anticoagulant. Plasma was obtained within 1 hours of blood collection by centrifugation at 8000×g and 4° C. for 6 minutes, and then stored at −20° C. until analyzed by LCMS/MS for quantification.

Series [2] is described as follows: Mini-pig dermal pharmacokinetic study. Type of series: in vivo, Guangxi Bama mini-pigs. The note with it: topical administration. From the text:
The aim of this study was to obtain the topical distribution of test articles in mini-pig after topical administration. Test articles were formulated in 50% PEG400, 10% transcutol and 40% PEG3350 (50% in water), and then applied to male Guangxi Bama mini-pigs (17-20 kg). Twenty-four hour prior to dosing, the hair of the mini-pig was shaved in left and right sides of the back. Two areas at least 5 cm apart at each side of the back were exposed (a total of four areas, each of which was about 112 cm^2). At the time zero, the test article was dosed to the exposed skins with […]. After dosing, the blood and skin samples were collected at 0.5, 1, 3, 6 hour. The blood was taken via venipuncture, and collected to the tubes containing heparin sodium as the anticoagulant. Exposed skin was washed with soap and water before skin sample was collected. Upon the dosed skin the punch biopsy from the epidermis layer to the muscle layer were taken at each time point. Epidermis, dermis, subcutis and subcutaneous muscle were quickly separated, weighed and frozen in dry ice. Epidermis and dermis were homogenized in 1:3 (w/v) normal saline. Homogenized samples were extracted with 3 fold volumes of acetonitrile and quantified against a standard curve with LC-MS/MS system.

Series [3] is described as follows: Rat colon pharmacokinetic study (plasma, colon, colon + fecal content). The class given is in vivo. To be noted: SD rats, 10 mg/kg oral gavage; for Colon + Feces AUC: colon homogenized with fecal content; for Colon AUC: colon washed of fecal content; for AUC / Cmax / half-life: Sprague-Dawley (SD), rat; for AUC / Cmax: plasma; for half-life: in vivo. The procedure:
The aim of this study was to obtain the pharmacokinetics of test articles in SD rats after oral administration. […] Rats were dosed with 10 mg/kg (1 mg/ml) via oral gavage. After dosing, blood and colon samples were collected at each time point (typically 0.5, 1, 3, 6, 24 hour). Blood was collected into appropriately labeled tubes containing K2EDTA as the anticoagulant. Plasma was obtained within one hour of blood collection by centrifugation at 8000g, 4-10° C. for 6 minutes, and then stored at −20° C. until analyzed by LC-MS/MS for quantification. Colon tissues were collected from exsanguinated rats at each time point. Collected colon tissue was divided into two parts. One part for the measurement of test articles in colon was washing three times by PBS to remove the fecal content before homogenization. The other part was homogenized with the fecal content for the measurement of test articles in colon and fecal content. Colon samples were homogenized in 1:5 (w/v) phosphate buffer (100 mM, pH 7.4). Homogenized samples were extracted with 3 fold volumes of acetonitrile and quantified against a standard curve with LC-MS/MS system.

A short description of series [4]: Dog pharmacokinetic study (intravenous and oral). The class given is in vivo. To be noted: plasma, Beagle dogs, oral, 20 mg/kg, solution.
Series [5] in a line: Rat pharmacokinetic study (intravenous and oral). Type of series: in vivo. The note with it: Sprague-Dawley rats, oral, 2 mg/kg, solution.
A short description of series [6]: Rat pharmacokinetic study (intravenous and oral). The class given is in vivo. The note with it: male, plasma, Sprague-Dawley rats, intravenous, 1 mg/kg, solution.

Consider 5 compounds from patent publication US12595253B2, “Benzamides of pyrazolylamino-pyrimidinyl derivatives, and compositions and methods thereof” (LYNK PHARMACEUTICALS CO. LTD., priority 2019, dated 2026).

Turning to `Cc1cnc(Nc2cnn(C3CC(C)(C)OC(C)(C)C3)c2)nc1-c1ccc(C(=O)NCC#N)cc1` [Example 113, N-(cyanomethyl)-4-(5-methyl-2-((1-(2,2,6,6-tetramethyltetrahydro-2H-pyran-4-yl)-1H-pyrazol-4-yl)amino)pyrimidin-4-yl)benzamide], in series [1] (intravenous, 1 mg/kg), the AUC – broadly, concentration integrated over time – stood at 279 ng·h/mL; the Vd stood at 0.67 L/kg; the clearance came to 59.5 mL/min/kg; the half-life (in general, how long it takes for the measured level to halve) was 7.8 min. Moreover, in series [1] (oral, 5 mg/kg), the area under the curve (AUC) amounted to 113 ng·h/mL; the Cmax (usually the maximum level reached in the sampled fluid or tissue) was found to be 175 ng/mL; the bioavailability (in general, dose-corrected exposure relative to a reference, in per cent) stood at 8.26%; the half-life was 102 min. The “Dermis, AUC0-last” value in series [2] (dermis) came out at 5209.4 ng·h/g. Besides, the “Epidermis AUC0-last” value in series [2] (epidermis) was determined as 107236.9 ng·h/g.
`Cc1cnc(Nc2cnn(C3CCN(C(=O)CO)CC3)c2)nc1-c1ccc(C(=O)N[C@@H](C)C#N)cc1` [Example 119, (S)—N-(1-cyanoethyl)-4-(2-((1-(1-(2-hydroxyacetyl)piperidin-4-yl)-1H-pyrazol-4-yl)amino)-5-methylpyrimidin-4-yl)benzamide]: in series [3], the “Colon + Feces AUC” value is 1,629,181 h*ng/g, the “Colon AUC” value turned out to be 6898 ng·h/g, the AUC was 23.7 ng·h/mL and the peak concentration (Cmax) is 16 ng/mL.
The matching figures for `C[C@@H](C#N)NC(=O)c1ccc(-c2nc(Nc3cnn(C4CCN(C)CC4)c3)ncc2Cl)cc1` [Example 43, (S)-4-(5-Chloro-2-((1-(1-methylpiperidin-4-yl)-1H-pyrazol-4-yl)amino)pyrimidin-4-yl)-N-(1-cyanoethyl)benzamide]: 559,570 h*ng/g, 3860 ng·h/g, 0.4 ng·h/mL and 1.6 ng/mL.
As to `CC[C@@H](C#N)NC(=O)c1ccc(-c2nc(Nc3cnn(C4CCN(C)CC4)c3)ncc2C)cc1` [Example 184, (S)—N-(1-Cyanopropyl)-4-(5-methyl-2-((1-(1-methylpiperidin-4-yl)-1H-pyrazol-4-yl)amino)pyrimidin-4-yl)benzamide], in series [3], the “Colon + Feces AUC” value is given as 827,222 h*ng/g, the “Colon AUC” value is given as 3,961 h*ng/g, the half-life was 30 min and the AUC was determined as 8.9 ng·h/mL. In addition, the highest concentration (Cmax) in series [3] amounted to 9.3 ng/mL.
Consider `Cc1cnc(Nc2cnn(CC#N)c2)nc1-c1ccc(C(=O)NCC#N)cc1` [Example 4, N-(Cyanomethyl)-4-(2-((1-(cyanomethyl)-1H-pyrazol-4-yl)amino)-5-methylpyrimidin-4-yl)benzamide], for which, in series [4], the AUC stood at 57.2 ng·h/mL, the concentration peaked (Cmax) at 58 ng/mL, the bioavailability stood at 1.8% and the half-life was 26.3 min. Also, in series [3], the “Colon + Feces AUC” value is 545,501 h*ng/g, the “Colon AUC” value is 6,623 h*ng/g, the half-life is 96 min and the area under the curve (AUC) was 96 ng·h/mL. The Cmax in series [3] is 68.8 ng/mL. In series [5], this compound had an F of 1.9%. For the same compound, in series [5] (male, rat, plasma), the exposure (AUC) is 29.8 ng·h/mL, the Cmax worked out at 40.4 ng/mL and the half-life was 22.8 min. In series [6], the AUC amounted to 855 ng·h/mL, the Vd was determined as 0.37 L/kg, the clearance came out at 19.4 mL/min/kg and the half-life is 13.2 min.
